Assay results: the kinase profiling compilation of Christmann-Franck et al. (2016)

Key:
Assay in all cases: radiometric filter-binding kinase assay, Kinase HotSpot
Conditions in all cases: compound 0.5 µM; ATP 10 µM
[1] = molecular target: AKT3 (human) (UniProt Q9Y243)
[2] = molecular target: AURKC (human) (UniProt Q9UQB9)
[3] = molecular target: AXL (human) (UniProt P30530)
[4] = molecular target: BTK (human) (UniProt Q06187)
[5] = molecular target: CAMK1D (human) (UniProt Q8IU85)
[6] = molecular target: CAMK2A (human) (UniProt Q9UQM7)
[7] = molecular target: CAMK2D (human) (UniProt Q13557)
[8] = molecular target: CDK2 CCNA2 (human) (UniProt P24941+P20248)
[9] = molecular target: CDK6 CCND1 (human) (UniProt Q00534+P24385)
[10] = molecular target: CSK (human) (UniProt P41240)
[11] = molecular target: CSNK2A1 (human) (UniProt P68400)
[12] = molecular target: DAPK1 (human) (UniProt P53355)
[13] = molecular target: DYRK3 (human) (UniProt O43781)
[14] = molecular target: EPHA4 (human) (UniProt P54764)
[15] = molecular target: FER (human) (UniProt P16591)
[16] = molecular target: INSR (human) (UniProt P06213)
[17] = molecular target: LCK (human) (UniProt P06239)
[18] = molecular target: MAP3K5 (human) (UniProt Q99683)
[19] = molecular target: MAP3K8 (human) (UniProt P41279)
[20] = molecular target: MAP4K2 (human) (UniProt Q12851)
[21] = molecular target: MAPK11 (human) (UniProt Q15759)
[22] = molecular target: MAPK8 (human) (UniProt P45983)
[23] = molecular target: NEK11 (human) (UniProt Q8NG66)
[24] = molecular target: PAK6 (human) (UniProt Q9NQU5)
[25] = molecular target: PBK (human) (UniProt Q96KB5)
[26] = molecular target: PDGFRB (human) (UniProt P09619)
[27] = molecular target: PRKACG (human) (UniProt P22612)
[28] = molecular target: PRKD1 (human) (UniProt Q15139)
[29] = molecular target: PRKD3 (human) (UniProt O94806)
[30] = molecular target: PTK2B (human) (UniProt Q14289)
[31] = molecular target: ROCK1 (human) (UniProt Q13464)
[32] = molecular target: RPS6KA3 KD1 KD2 (human) (UniProt P51812)
[33] = molecular target: SLK (human) (UniProt Q9H2G2)
[34] = molecular target: SRPK2 (human) (UniProt P78362)
[35] = molecular target: STK10 (human) (UniProt O94804)
[36] = molecular target: STK38 (human) (UniProt Q15208)
[37] = molecular target: TAOK3 (human) (UniProt Q9H2K8)
[38] = molecular target: TYK2 JH1 catalytic (human) (UniProt P29597)
[39] = molecular target: ACVR1B (human) (UniProt P36896)
[40] = molecular target: MAP3K14 (human) (UniProt Q99558)
[41] = molecular target: MAP3K3 (human) (UniProt Q99759)
[42] = molecular target: STK33 (human) (UniProt Q9BYT3)

Sequence of PRKD3 (human) (O94806 whole entry, looked up): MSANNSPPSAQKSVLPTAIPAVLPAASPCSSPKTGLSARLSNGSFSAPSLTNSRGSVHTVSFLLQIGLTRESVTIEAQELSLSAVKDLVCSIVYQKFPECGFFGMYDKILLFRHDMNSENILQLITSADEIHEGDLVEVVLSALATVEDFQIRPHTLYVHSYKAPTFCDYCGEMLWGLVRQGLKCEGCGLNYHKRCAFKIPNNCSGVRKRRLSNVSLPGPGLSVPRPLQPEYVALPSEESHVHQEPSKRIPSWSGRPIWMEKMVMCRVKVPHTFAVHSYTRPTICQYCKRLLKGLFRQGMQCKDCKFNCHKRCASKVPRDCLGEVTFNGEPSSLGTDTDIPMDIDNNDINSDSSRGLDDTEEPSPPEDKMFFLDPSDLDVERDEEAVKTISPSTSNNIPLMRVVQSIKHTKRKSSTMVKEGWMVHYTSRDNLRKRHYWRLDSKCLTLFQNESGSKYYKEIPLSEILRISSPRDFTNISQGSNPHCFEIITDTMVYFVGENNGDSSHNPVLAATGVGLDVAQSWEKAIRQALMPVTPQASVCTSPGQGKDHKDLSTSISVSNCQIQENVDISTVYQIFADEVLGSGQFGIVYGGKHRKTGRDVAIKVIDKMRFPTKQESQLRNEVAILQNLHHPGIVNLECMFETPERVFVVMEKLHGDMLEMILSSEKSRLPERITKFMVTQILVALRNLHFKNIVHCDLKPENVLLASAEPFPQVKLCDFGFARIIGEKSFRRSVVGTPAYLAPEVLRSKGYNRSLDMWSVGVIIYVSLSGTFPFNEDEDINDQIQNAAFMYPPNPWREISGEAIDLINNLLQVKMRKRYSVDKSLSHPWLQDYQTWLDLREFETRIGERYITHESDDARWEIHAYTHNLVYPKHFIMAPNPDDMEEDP
Sequence of PDGFRB (human) (P09619 whole entry, looked up): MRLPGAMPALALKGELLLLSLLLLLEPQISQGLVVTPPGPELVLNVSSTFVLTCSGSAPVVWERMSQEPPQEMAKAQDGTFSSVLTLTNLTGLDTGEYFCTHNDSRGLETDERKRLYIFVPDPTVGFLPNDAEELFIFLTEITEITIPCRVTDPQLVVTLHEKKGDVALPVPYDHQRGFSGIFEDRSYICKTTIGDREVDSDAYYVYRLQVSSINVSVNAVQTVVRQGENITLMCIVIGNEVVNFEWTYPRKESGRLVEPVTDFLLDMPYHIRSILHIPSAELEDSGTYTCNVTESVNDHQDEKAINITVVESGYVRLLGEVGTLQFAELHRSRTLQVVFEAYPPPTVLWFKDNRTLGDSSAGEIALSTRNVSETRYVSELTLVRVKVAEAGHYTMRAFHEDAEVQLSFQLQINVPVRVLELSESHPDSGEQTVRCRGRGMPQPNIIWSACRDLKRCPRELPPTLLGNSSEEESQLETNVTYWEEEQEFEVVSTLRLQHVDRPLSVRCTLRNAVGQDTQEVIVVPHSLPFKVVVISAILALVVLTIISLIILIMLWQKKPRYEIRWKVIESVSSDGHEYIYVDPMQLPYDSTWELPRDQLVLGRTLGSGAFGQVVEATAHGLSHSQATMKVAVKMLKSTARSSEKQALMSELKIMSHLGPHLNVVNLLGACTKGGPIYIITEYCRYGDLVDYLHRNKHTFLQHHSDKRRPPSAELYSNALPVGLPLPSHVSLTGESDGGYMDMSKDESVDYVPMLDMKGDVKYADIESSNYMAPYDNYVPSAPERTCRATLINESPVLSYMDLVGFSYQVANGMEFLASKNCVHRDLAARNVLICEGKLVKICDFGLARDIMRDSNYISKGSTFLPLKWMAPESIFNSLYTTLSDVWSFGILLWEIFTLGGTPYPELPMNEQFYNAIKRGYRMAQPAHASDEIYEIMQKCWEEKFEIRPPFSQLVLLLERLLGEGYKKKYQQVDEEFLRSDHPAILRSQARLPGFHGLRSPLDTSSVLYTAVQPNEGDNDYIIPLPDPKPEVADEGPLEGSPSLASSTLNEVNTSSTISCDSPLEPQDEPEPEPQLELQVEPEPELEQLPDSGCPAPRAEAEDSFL
Sequence of BTK (human) (Q06187 whole entry, looked up): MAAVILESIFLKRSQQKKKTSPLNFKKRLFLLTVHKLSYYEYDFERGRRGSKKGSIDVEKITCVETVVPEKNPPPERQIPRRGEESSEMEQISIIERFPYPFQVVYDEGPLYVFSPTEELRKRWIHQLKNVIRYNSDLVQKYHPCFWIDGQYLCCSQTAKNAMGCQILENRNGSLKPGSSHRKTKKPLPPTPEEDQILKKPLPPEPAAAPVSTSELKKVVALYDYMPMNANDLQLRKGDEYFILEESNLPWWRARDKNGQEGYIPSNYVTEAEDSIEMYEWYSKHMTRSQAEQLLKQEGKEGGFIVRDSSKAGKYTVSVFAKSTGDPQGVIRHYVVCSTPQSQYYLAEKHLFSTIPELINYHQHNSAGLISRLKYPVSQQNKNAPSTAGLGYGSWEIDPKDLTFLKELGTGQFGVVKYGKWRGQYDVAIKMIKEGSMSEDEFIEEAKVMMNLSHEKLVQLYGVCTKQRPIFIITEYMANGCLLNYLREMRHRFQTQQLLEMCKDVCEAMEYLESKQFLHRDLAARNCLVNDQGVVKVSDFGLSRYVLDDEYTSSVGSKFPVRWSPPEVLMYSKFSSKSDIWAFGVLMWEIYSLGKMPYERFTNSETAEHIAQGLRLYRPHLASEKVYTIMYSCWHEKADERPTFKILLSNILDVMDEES
Sequence of AXL (human) (P30530 whole entry, looked up): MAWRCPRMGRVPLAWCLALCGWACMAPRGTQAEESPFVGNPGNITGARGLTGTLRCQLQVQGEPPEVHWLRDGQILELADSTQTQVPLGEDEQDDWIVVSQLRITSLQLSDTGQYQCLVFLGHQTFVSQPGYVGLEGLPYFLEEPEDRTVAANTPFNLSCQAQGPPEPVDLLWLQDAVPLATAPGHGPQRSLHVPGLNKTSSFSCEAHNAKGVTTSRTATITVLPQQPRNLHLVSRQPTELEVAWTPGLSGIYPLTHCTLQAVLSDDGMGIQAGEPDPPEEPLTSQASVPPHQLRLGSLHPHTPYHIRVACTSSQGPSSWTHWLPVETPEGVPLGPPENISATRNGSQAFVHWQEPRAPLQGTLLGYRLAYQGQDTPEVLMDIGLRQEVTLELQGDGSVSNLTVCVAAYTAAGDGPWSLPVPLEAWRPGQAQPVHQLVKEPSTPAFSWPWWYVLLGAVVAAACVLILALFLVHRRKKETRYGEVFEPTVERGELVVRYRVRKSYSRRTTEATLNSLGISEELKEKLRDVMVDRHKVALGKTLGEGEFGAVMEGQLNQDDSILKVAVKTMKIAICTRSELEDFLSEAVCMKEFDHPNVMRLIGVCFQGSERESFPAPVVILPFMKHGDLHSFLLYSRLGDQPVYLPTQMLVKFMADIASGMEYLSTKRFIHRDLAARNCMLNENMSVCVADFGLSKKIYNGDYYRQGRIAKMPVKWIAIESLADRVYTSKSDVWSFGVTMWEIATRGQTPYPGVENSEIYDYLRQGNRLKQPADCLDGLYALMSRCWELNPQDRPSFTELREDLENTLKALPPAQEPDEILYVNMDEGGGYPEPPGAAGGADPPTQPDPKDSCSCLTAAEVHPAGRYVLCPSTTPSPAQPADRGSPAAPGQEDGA
Sequence of NEK11 (human) (Q8NG66 whole entry, looked up): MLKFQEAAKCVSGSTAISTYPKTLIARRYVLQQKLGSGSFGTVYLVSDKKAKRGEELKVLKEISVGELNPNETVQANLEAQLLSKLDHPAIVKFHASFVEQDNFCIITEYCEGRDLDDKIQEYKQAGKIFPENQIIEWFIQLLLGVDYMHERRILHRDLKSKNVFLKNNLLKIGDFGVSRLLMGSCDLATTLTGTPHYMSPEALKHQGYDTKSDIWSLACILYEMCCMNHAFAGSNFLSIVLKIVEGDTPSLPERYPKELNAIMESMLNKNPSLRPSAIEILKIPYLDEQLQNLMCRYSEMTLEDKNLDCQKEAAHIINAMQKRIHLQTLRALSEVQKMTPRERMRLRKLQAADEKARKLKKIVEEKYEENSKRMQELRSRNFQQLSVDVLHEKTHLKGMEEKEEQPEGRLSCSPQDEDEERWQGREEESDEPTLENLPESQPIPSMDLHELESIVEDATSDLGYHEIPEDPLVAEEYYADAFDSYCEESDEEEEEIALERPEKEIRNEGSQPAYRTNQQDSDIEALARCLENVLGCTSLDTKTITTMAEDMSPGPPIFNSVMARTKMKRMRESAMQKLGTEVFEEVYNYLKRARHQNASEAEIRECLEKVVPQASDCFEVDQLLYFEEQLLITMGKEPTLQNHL
Sequence of CAMK2A (human) (Q9UQM7 whole entry, looked up): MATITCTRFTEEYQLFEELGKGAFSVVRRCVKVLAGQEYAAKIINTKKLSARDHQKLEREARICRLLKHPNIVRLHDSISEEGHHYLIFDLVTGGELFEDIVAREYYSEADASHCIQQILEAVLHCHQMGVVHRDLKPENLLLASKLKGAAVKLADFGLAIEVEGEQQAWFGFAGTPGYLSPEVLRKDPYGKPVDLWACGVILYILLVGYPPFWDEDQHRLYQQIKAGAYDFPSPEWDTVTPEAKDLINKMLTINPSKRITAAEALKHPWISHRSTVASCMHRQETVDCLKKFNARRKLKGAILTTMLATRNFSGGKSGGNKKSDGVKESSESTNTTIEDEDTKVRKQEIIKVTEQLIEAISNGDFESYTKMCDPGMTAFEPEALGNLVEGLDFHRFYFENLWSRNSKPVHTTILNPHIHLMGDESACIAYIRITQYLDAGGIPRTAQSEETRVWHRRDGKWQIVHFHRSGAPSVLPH
Sequence of AURKC (human) (Q9UQB9 whole entry, looked up): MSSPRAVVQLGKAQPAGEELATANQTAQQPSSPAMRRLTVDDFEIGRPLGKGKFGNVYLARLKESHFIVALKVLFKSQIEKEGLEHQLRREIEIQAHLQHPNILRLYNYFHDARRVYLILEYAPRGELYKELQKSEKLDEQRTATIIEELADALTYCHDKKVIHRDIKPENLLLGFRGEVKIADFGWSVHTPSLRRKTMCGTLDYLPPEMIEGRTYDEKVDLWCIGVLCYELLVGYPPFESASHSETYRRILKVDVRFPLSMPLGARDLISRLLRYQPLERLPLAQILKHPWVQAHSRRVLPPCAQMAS

Oc1cccc(-c2nc(N3CCOCC3)c3oc4ncccc4c3n2)c1
residual activity [1]: 99%
residual activity [2]: 98.1%
residual activity [3]: 105%
residual activity [4]: 95.2%
residual activity [5]: 121%
residual activity [6]: 93.7%
residual activity [7]: 96.2%
residual activity [8]: 104%
residual activity [9]: 95.6%
residual activity [10]: 88.3%
residual activity [11]: 94.7%
residual activity [12]: 78%
residual activity [13]: 94.9%
residual activity [14]: 96.4%
residual activity [15]: 97.8%
residual activity [16]: 98.6%
residual activity [17]: 98%
residual activity [18]: 101%
residual activity [19]: 99.2%
residual activity [20]: 93%
residual activity [21]: 103%
residual activity [22]: 89.8%
residual activity [23]: 109%
residual activity [24]: 105%
residual activity [25]: 88.7%
residual activity [26]: 99.2%
residual activity [27]: 101%
residual activity [28]: 98.3%
residual activity [29]: 92.9%
residual activity [30]: 103%
residual activity [31]: 94.9%
residual activity [32]: 101%
residual activity [33]: 101%
residual activity [34]: 97.3%
residual activity [35]: 92.1%
residual activity [36]: 99%
residual activity [37]: 86.8%
residual activity [38]: 73.6%

COc1cc2ncnc(Nc3cccc(Cl)c3)c2cc1OC
residual activity [39]: 98%
residual activity [1]: 98.3%
residual activity [2]: 85.8%
residual activity [3]: 95.3%
residual activity [4]: 76.7%
residual activity [5]: 96.6%
residual activity [6]: 98.2%
residual activity [7]: 96.1%
residual activity [9]: 92.5%
residual activity [10]: 91.1%
residual activity [12]: 108%
residual activity [13]: 96.3%
residual activity [14]: 81.7%
residual activity [15]: 77.1%
residual activity [16]: 77.6%
residual activity [17]: 74.9%
residual activity [40]: 107%
residual activity [41]: 88.3%
residual activity [18]: 106%
residual activity [19]: 104%
residual activity [20]: 98.1%
residual activity [21]: 97.5%
residual activity [22]: 93.8%
residual activity [23]: 96.9%
residual activity [24]: 81.6%
residual activity [25]: 70.9%
residual activity [26]: 100%
residual activity [27]: 87.9%
residual activity [28]: 92.3%
residual activity [29]: 86.5%
residual activity [30]: 85.3%
residual activity [31]: 95.9%
residual activity [32]: 87.8%
residual activity [33]: 64.6%
residual activity [34]: 88.2%
residual activity [35]: 24.5%
residual activity [42]: 88.3%
residual activity [36]: 104%
residual activity [37]: 90.4%
residual activity [38]: 98.1%

CCOC(=O)c1c(C)[nH]c(/C=C2\C(=O)Nc3ccccc32)c1C
residual activity [39]: 96.6%
residual activity [1]: 103%
residual activity [2]: 89.1%
residual activity [3]: 88.9%
residual activity [4]: 95.6%
residual activity [5]: 93.1%
residual activity [6]: 96.8%
residual activity [7]: 93.9%
residual activity [8]: 94.5%
residual activity [9]: 89.7%
residual activity [10]: 104%
residual activity [11]: 114%
residual activity [12]: 100%
residual activity [13]: 102%
residual activity [14]: 80.3%
residual activity [15]: 72.5%
residual activity [16]: 90.6%
residual activity [17]: 88.2%
residual activity [40]: 118%
residual activity [41]: 92.8%
residual activity [19]: 108%
residual activity [20]: 95.5%
residual activity [21]: 97.5%
residual activity [22]: 106%
residual activity [23]: 96.6%
residual activity [24]: 81.4%
residual activity [25]: 85%
residual activity [26]: 69.1%
residual activity [27]: 88.4%
residual activity [28]: 91.3%
residual activity [29]: 90.1%
residual activity [30]: 80.6%
residual activity [31]: 99.1%
residual activity [32]: 86.4%
residual activity [33]: 89.8%
residual activity [34]: 92.3%
residual activity [35]: 82.2%
residual activity [42]: 83.7%
residual activity [36]: 101%
residual activity [37]: 87.6%
residual activity [38]: 89.9%
